Test results reported in PubChem BioAssay (NCI).
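Dose response: 5 concentrations. Exposure: 48 h. Format: 96-well plates. Endpoint: linear interpolation; highest concentration if not reached. TGI: concentration producing complete growth inhibition.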

What was measured:
Experiment in all cases: DTP human tumour cell line panel, 48 h
786-0 renal = tested on: 786-0 renal
A549 NSCLC = tested on: A549 NSCLC
OVCAR-3 ovarian = tested on: OVCAR-3 ovarian
SNB-19 CNS = tested on: SNB-19 CNS
CAKI-1 renal = tested on: CAKI-1 renal
SR leukemia = tested on: SR leukemia
TK-10 renal = tested on: TK-10 renal
COLO 205 colon = tested on: COLO 205 colon
SW-620 colon = tested on: SW-620 colon
HS 578T breast = tested on: HS 578T breast
UACC-62 melanoma = tested on: UACC-62 melanoma
UACC-257 melanoma = tested on: UACC-257 melanoma
NCI-H522 lung = tested on: NCI-H522 lung
SF-295 CNS = tested on: SF-295 CNS
K-562 leukemia = tested on: K-562 leukemia
KM12 colon = tested on: KM12 colon
MDA-MB-435 = tested on: MDA-MB-435
HCC-2998 colon = tested on: HCC-2998 colon
EKVX NSCLC = tested on: EKVX NSCLC

SMILES	TGI (786-0 renal) [µM]	TGI (A549 NSCLC) [µM]	TGI (OVCAR-3 ovarian) [µM]	TGI (SNB-19 CNS) [µM]	TGI (CAKI-1 renal) [µM]	TGI (SR leukemia) [µM]	TGI (TK-10 renal) [µM]	TGI (COLO 205 colon) [µM]	TGI (SW-620 colon) [µM]	TGI (HS 578T breast) [µM]	TGI (UACC-62 melanoma) [µM]	TGI (UACC-257 melanoma) [µM]	TGI (NCI-H522 lung) [µM]	TGI (SF-295 CNS) [µM]	TGI (K-562 leukemia) [µM]	TGI (KM12 colon) [µM]	TGI (MDA-MB-435) [µM]	TGI (HCC-2998 colon) [µM]	TGI (EKVX NSCLC) [µM]
c1cc2nnc1SCCCSc1ccc(nn1)SCCCSc1ccc(nn1)SCCCS2	> 100	> 100	> 100	> 100	> 100	> 100	> 100	> 100	> 100	> 100	> 100	> 100	> 100	> 100	> 100	> 100	> 100	> 100	–
COC(CC1(/C=C/O[Si](C(C)C)(C(C)C)C(C)C)C(=O)N(COCC[Si](C)(C)C)c2ccccc21)OC (configuration not stated)	> 100	> 100	38.3	> 100	> 100	> 100	> 100	> 100	> 100	> 100	69.4	> 100	23.6	22.5	> 100	> 100	60.9	> 100	–
COC(=O)C(C(=O)C(=O)Nc1ccccc1C#N)c1nc2ccc([N+](=O)[O-])cc2[nH]c1=O (configuration not stated)	> 100	> 100	> 100	> 100	> 100	> 100	> 100	> 100	> 100	> 100	> 100	> 100	> 100	> 100	–	> 100	> 100	> 100	> 100
CC(C)OP(=O)(OC(C)C)c1ccc2c(c1)OCCOCCOCCOCCO2	> 100	> 100	–	> 100	> 100	> 100	> 100	> 100	> 100	> 100	> 100	> 100	> 100	> 100	> 100	> 100	> 100	> 100	> 100
CCCCc1ccc(-n2sc3ncc([N+](=O)[O-])cc3c2=O)cc1	28.2	27.3	46.1	48.6	26.2	45.9	61.9	32.3	35.9	30.8	21.8	50.9	9.36	27	–	25.4	52.3	27.6	29.8
Cc1[nH]n(C(=N)N)c(=O)c1CCO	3.08	> 100	> 100	> 100	> 100	> 100	> 100	> 100	> 100	> 100	> 100	> 100	> 100	> 100	> 100	–	> 100	> 100	–
COc1cc(/C=C/c2nc(N)nnc2C)cc(OC)c1OC	> 60.6	> 79.4	–	> 82.2	> 100	> 100	> 77.3	> 53	> 100	> 67.5	> 50.3	> 59.8	21.7	> 72.6	71.2	> 50.5	> 94.7	29.5	> 72.9
S=C(N/N=C/c1ccccn1)Nc1ccc(Cl)cc1	16.1	> 65.4	> 100	> 39	30.5	> 100	> 96	> 100	> 100	> 67.2	1.51	> 100	0.18	> 91.7	–	> 100	> 100	> 57.7	> 100
O=C(NNC(=S)Nc1ccc(Br)cc1)c1cc(-c2ccccc2)nc2ccccc12	33.2	58	33.1	> 100	72.6	40.6	42.2	53	46.9	94.2	50.2	61.4	59	38.3	89.8	> 100	43.2	30.8	–
CCOC(=O)C1C(c2ccc(O)c(OC)c2)c2c([nH][nH]c2=O)CC1(C)O (configuration not stated)	> 100	> 100	> 100	> 100	> 100	> 100	> 100	> 100	> 100	> 100	> 100	> 100	> 100	> 100	–	> 100	> 100	> 100	> 100
CC(=O)Oc1c2c(c(CC=C(C)C)c3c1C(=O)C1=C[C@@H]4CC5C(C)(C)OC(C/C=C(/C)C(=O)O)(C4=O)[C@@]15O3)OC(C)(CCC=C(C)C)C=C2 (some centres not stated)	0.364	0.999	0.922	1.38	0.409	53.9	0.585	0.421	0.241	1.44	0.86	1.36	0.281	1.67	–	0.897	0.348	1.62	0.839
